# Laboratory results taken from ChEMBL document CHEMBL2046389, “Contribution of indazolinone tautomers to kinase activity” (Bioorg Med Chem Lett, 2012).
# Biological target: Vascular endothelial growth factor receptor 2 (Homo sapiens, UniProt P35968)
# Experiment: Inhibition of KDR in presence of 1 mM ATP
# Chain of Vascular endothelial growth factor receptor 2 (P35968 whole entry): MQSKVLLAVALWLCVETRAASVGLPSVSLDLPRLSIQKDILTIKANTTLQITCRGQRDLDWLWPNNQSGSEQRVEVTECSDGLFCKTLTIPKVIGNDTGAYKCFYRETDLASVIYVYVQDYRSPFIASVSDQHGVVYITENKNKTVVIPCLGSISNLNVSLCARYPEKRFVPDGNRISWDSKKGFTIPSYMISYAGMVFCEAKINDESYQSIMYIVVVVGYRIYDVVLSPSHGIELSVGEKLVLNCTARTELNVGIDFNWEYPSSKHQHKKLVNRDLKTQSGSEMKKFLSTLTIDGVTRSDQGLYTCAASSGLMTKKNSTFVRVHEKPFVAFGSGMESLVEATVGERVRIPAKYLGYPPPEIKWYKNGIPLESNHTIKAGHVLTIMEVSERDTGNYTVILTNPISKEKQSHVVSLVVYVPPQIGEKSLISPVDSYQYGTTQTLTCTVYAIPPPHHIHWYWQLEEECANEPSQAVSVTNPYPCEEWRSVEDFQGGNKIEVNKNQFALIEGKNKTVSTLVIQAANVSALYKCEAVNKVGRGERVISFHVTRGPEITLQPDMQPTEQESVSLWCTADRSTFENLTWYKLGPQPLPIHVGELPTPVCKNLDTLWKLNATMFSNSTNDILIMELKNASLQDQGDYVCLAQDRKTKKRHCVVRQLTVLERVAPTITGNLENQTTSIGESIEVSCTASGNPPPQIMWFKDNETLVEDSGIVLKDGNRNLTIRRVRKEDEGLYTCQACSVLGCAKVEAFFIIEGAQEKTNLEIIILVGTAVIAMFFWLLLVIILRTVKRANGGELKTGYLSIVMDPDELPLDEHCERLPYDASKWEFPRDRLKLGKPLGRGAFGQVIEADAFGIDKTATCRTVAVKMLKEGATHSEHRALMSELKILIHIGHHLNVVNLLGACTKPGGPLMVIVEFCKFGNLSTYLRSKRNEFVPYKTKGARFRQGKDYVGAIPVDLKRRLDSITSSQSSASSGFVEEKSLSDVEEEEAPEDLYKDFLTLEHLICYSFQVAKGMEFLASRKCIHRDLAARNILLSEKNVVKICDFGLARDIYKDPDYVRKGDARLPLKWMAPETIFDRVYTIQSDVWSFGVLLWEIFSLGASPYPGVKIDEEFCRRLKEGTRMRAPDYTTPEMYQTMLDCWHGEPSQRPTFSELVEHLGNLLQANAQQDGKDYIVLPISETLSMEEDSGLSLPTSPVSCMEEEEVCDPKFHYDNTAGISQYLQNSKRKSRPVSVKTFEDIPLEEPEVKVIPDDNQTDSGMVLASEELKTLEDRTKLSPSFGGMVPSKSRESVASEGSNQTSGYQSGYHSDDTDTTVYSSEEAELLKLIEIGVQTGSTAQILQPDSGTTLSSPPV
row,IC50 [µM],SMILES
1,> 1000,Cc1cccc(NC(=O)Nc2ccc(-c3cccc4c3C(=O)NC4)cc2)c1
2,> 1000,Cc1cccc(NC(=O)Nc2ccc(-c3cccc4c(N)n[nH]c34)cc2)c1
3,0.01,O=C(Nc1ccc(-c2cccc3[nH][nH]c(=O)c23)cc1)Nc1cccc(C(F)(F)F)c1
4,0.04,O=C(Nc1ccc(-c2cccc3c(=O)[nH][nH]c23)cc1)Nc1cccc(C(F)(F)F)c1
